Results as given in ChEMBL document CHEMBL1129588, “Development of potent thrombin receptor antagonist peptides” (J Med Chem, 1996).
Starred links: 1 amine or outer side, 2 acyl side, 3 side chain; linkers in the order of their positions; H or OH if unused. Non-standard residues stand in square brackets, D forms with d. Residues, ends and D or L forms follow the SMILES beside them. *: point of attachment. X8 = C#CC(=O)c1cccc(N([C@@H](Cc2ccc(F)cc2)C(=O)[*:2])[*:1])c1; X9 = CCC(=O)c1cccc(N([C@@H](Cc2ccc(F)cc2)C(=O)[*:2])[*:1])c1; X3 = CC(=O)N(C(=O)/C=C/c1ccccc1)[C@@H](Cc1ccc(F)cc1)C(=O)*; Phe(4-guanidino) = N=C(N)Nc1ccc(C[C@H](N)C(=O)O)cc1; Phe(4-F) = N[C@@H](Cc1ccc(F)cc1)C(=O)O; X2 = O=S(=O)(c1cccs1)*

biological target: T1, Proteinase-activated receptor 1 (Homo sapiens, UniProt P25116)
T1 sequence (P25116 whole entry): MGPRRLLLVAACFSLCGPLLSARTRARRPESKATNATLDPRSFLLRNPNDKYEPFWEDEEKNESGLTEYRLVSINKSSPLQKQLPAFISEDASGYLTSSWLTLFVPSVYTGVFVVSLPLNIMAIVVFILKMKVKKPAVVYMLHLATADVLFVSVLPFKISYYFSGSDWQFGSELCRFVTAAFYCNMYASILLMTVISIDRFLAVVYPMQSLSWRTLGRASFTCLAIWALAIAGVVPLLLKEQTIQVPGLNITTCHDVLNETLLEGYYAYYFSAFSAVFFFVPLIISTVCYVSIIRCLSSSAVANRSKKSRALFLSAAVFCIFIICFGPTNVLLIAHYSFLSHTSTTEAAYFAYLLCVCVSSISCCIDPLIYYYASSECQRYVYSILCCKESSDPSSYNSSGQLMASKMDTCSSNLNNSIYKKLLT

Row | IC50 [µM] | Structure (SMILES)
1 | 0.023 | CC#Cc1ccccc1C(=O)N(C(C)=O)[C@@H](Cc1ccc(F)cc1)C(=O)N[C@@H](Cc1ccc(NC(=N)N)cc1)C(=O)N[C@@H](CC(C)C)C(=O)N[C@@H](CCCN=C(N)N)C(N)=O
2 | 0.044 | CC(=O)N(C(=O)/C=C/c1ccccc1)[C@@H](Cc1ccc(F)cc1)C(=O)N[C@@H](Cc1ccc(NC(=N)N)cc1)C(=O)N[C@@H](CC(C)C)C(=O)N[C@@H](CCCN)C(=O)CC(N)=O
3 | 0.041 | CC(=O)N(C(=O)/C=C/c1cccc(Cl)c1)[C@@H](Cc1ccc(F)cc1)C(=O)N[C@@H](Cc1ccc(NC(=N)N)cc1)C(=O)N[C@@H](CC(C)C)C(=O)N[C@@H](CCCN=C(N)N)C(N)=O
4 | 0.47 | CC(=O)N(C(=O)/C=C/c1ccccc1)[C@@H](Cc1ccc(F)cc1)C(=O)N[C@@H](Cc1c[nH]cn1)C(=O)N[C@@H](CC(C)C)C(=O)N[C@@H](CCCN=C(N)N)C(N)=O
5 | 1 | CC(=O)N(C(=O)c1ccccc1N)[C@@H](Cc1ccc(F)cc1)C(=O)N[C@@H](Cc1ccc(NC(=N)N)cc1)C(=O)N[C@@H](CC(C)C)C(=O)N[C@@H](CCCN=C(N)N)C(N)=O
6 | 0.035 | CCCCC/C=C/CC(=O)N(C(C)=O)[C@@H](Cc1ccc(F)cc1)C(=O)N[C@@H](Cc1ccc(NC(=N)N)cc1)C(=O)N[C@@H](CC(C)C)C(=O)N[C@@H](CCCN=C(N)N)C(N)=O
7 | 1.18 | COc1ccc(C[C@H](NC(=O)[C@H](Cc2ccc(F)cc2)N(C(C)=O)C(=O)/C=C/c2ccccc2)C(=O)N[C@@H](CC(C)C)C(=O)N[C@@H](CCCN=C(N)N)C(N)=O)cc1
8 | 0.32 | CC(=O)N(C(=O)/C=C/c1ccccc1)[C@@H](Cc1ccc(F)cc1)C(=O)N[C@@H](CCCN=C(N(C)C)N(C)C)C(=O)N[C@@H](CC(C)C)C(=O)N[C@@H](CCCN=C(N)N)C(N)=O
9 | 0.028 | CC(=O)N(C(=O)/C=C/c1ccccc1)[C@@H](Cc1ccc(F)cc1)C(=O)N[C@@H](CCCN=C(N)N)C(=O)N[C@@H](CC(C)C)C(=O)N[C@@H](CCCN=C(N)N)C(N)=O
10 | 0.025 | CC(=O)N(C(=O)/C=C/c1ccc(F)cc1)[C@@H](Cc1ccc(F)cc1)C(=O)N[C@@H](Cc1ccc(NC(=N)N)cc1)C(=O)N[C@@H](CC(C)C)C(=O)N[C@@H](CCCN=C(N)N)C(=O)N[C@@H](CCCN)C(=O)CC(N)=O
11 | 0.028 | CC(=O)N(C(=O)/C=C/c1ccccc1)[C@@H](Cc1ccc(F)cc1)C(=O)N[C@@H](CCN=C(N)N)C(=O)N[C@@H](CC(C)C)C(=O)N[C@@H](CCCN=C(N)N)C(N)=O
12 | 0.012 | CC(=O)N(C(=O)/C=C/c1ccccc1)[C@@H](Cc1ccc(F)cc1)C(=O)N[C@@H](CCCCN=C(N)N)C(=O)N[C@@H](CC(C)C)C(=O)N[C@@H](CCCN=C(N)N)C(N)=O
13 | 3.44 | CC(=O)N(C(=O)/C=C/c1ccccc1)[C@@H](Cc1cccnc1)C(=O)N[C@@H](Cc1ccc(NC(=N)N)cc1)C(=O)N[C@@H](CC(C)C)C(=O)N[C@@H](CCCN=C(N)N)C(N)=O
14 | 0.042 | CC(=O)N(C(=O)/C=C/c1ccccc1)[C@@H](Cc1cccs1)C(=O)N[C@@H](Cc1ccc(NC(=N)N)cc1)C(=O)N[C@@H](CC(C)C)C(=O)N[C@@H](CCCN=C(N)N)C(N)=O
15 | 0.093 | CC(=O)N(C(=O)/C=C/c1ccccc1)[C@@H](CC1CCCCC1)C(=O)N[C@@H](Cc1ccc(NC(=N)N)cc1)C(=O)N[C@@H](CC(C)C)C(=O)N[C@@H](CCCN=C(N)N)C(N)=O
16 | 0.16 | CC(=O)N(c1cccc(F)c1)[C@@H](Cc1ccc(F)cc1)C(=O)N[C@@H](Cc1ccc(NC(=N)N)cc1)C(=O)N[C@@H](CC(C)C)C(=O)N[C@@H](CCCN=C(N)N)C(N)=O

Row | IC50 [µM] | Structure (SMILES)
17 | 0.68 | CC(=O)N(c1ccccc1)[C@@H](Cc1ccc(F)cc1)C(=O)N[C@@H](Cc1ccc(NC(=N)N)cc1)C(=O)N[C@@H](CC(C)C)C(=O)N[C@@H](CCCN=C(N)N)C(N)=O
18 | 0.11 | CC(=O)N(c1cccc(Cl)c1)[C@@H](Cc1ccc(F)cc1)C(=O)N[C@@H](Cc1ccc(NC(=N)N)cc1)C(=O)N[C@@H](CC(C)C)C(=O)N[C@@H](CCCN=C(N)N)C(N)=O
19 | 0.63 | CC(=O)N(C(=O)/C=C/c1ccccc1)[C@@H](Cc1ccc(F)cc1)C(=O)N[C@@H](CCc1ccccc1)C(=O)N[C@@H](CC(C)C)C(=O)N[C@@H](CCCN=C(N)N)C(N)=O
20 | 0.023 | C=CC(=O)c1ccsc1N(C(C)=O)[C@@H](Cc1ccc(F)cc1)C(=O)N[C@@H](Cc1ccc(NC(=N)N)cc1)C(=O)N[C@@H](CC(C)C)C(=O)N[C@@H](CCCN=C(N)N)C(N)=O
21 | 0.35 | CC(=O)N(c1ccc(F)cc1)[C@@H](Cc1ccc(F)cc1)C(=O)N[C@@H](Cc1ccc(NC(=N)N)cc1)C(=O)N[C@@H](CC(C)C)C(=O)N[C@@H](CCCN=C(N)N)C(N)=O
22 | 1.63 | CC(=O)N(C(=O)Cc1cccc2ccccc12)[C@@H](Cc1ccc(F)cc1)C(=O)N[C@@H](Cc1ccc(NC(=N)N)cc1)C(=O)N[C@@H](CC(C)C)C(=O)N[C@@H](CCCN=C(N)N)C(N)=O
23 | 0.024 | CC(=O)N(C(=O)/C=C/c1ccccc1)[C@@H](Cc1ccccc1)C(=O)N[C@@H](Cc1ccc(NC(=N)N)cc1)C(=O)N[C@@H](CC(C)C)C(=O)N[C@@H](CCCN=C(N)N)C(N)=O
24 | 0.246 | CC(=O)N(C(=O)/C=C/c1ccccc1)[C@@H](Cc1ccc(F)cc1)C(=O)N[C@@H](Cc1ccc2ccccc2c1)C(=O)N[C@@H](CC(C)C)C(=O)N[C@@H](CCCN=C(N)N)C(N)=O
25 | 7.55 | CC(=O)N(C(=O)/C=C/c1ccccc1)[C@@H](Cc1ccc(F)cc1)C(=O)N[C@@H](Cc1ccc([N+](=O)[O-])cc1)C(=O)N[C@@H](CC(C)C)C(=O)N[C@@H](CCCN=C(N)N)C(N)=O
26 | 1.12 | CC(=O)N(C(=O)/C=C/c1ccccc1)[C@@H](Cc1ccc(F)cc1)C(=O)N[C@@H](Cc1ccccc1)C(=O)N[C@@H](CC(C)C)C(=O)N[C@@H](CCCN=C(N)N)C(N)=O
27 | 1.53 | CC(=O)N(C(=O)/C=C/c1ccc(-c2ccccc2)cc1)[C@@H](Cc1ccc(F)cc1)C(=O)N[C@@H](Cc1ccc(NC(=N)N)cc1)C(=O)N[C@@H](CC(C)C)C(=O)N[C@@H](CCCN=C(N)N)C(N)=O
28 | 0.019 | CC(=O)N(C(=O)CSc1ccccc1)[C@@H](Cc1ccc(F)cc1)C(=O)N[C@@H](Cc1ccc(NC(=N)N)cc1)C(=O)N[C@@H](CC(C)C)C(=O)N[C@@H](CCCN=C(N)N)C(N)=O
29 | 0.004 | C#CC(=O)c1cccc(N(C(C)=O)[C@@H](Cc2ccc(F)cc2)C(=O)N[C@@H](Cc2ccc(NC(=N)N)cc2)C(=O)N[C@@H](CC(C)C)C(=O)N[C@@H](CCCN=C(N)N)C(=O)N[C@@H](CCCN=C(N)N)C(N)=O)c1 (Ac-[X8][Phe(4-guanidino)]LRR-NH2)
30 | 0.009 | CCC(=O)c1cccc(N(C(C)=O)[C@@H](Cc2ccc(F)cc2)C(=O)N[C@@H](Cc2ccc(NC(=N)N)cc2)C(=O)N[C@@H](CC(C)C)C(=O)N[C@@H](CCCN=C(N)N)C(=O)N[C@@H](CCCN=C(N)N)C(N)=O)c1 (Ac-[X9][Phe(4-guanidino)]LRR-NH2)
31 | 8.95 | CC(C)C[C@H](NC(=O)[C@H](Cc1ccc(NC(=N)N)cc1)NC(=O)[C@H](Cc1ccc(F)cc1)NS(=O)(=O)c1cccs1)C(=O)N[C@@H](CCCN=C(N)N)C(N)=O (X2-[Phe(4-F)][Phe(4-guanidino)]LR-NH2)
32 | 0.0075 | CC(=O)N(C(=O)/C=C/c1ccccc1)[C@@H](Cc1ccc(F)cc1)C(=O)N[C@@H](Cc1ccc(NC(=N)N)cc1)C(=O)N[C@@H](CC(C)C)C(=O)N[C@@H](CCCN=C(N)N)C(=O)N[C@@H](CCCN=C(N)N)C(N)=O (X3-[Phe(4-guanidino)]LRR-NH2)
